Results on 25 molecules are retold here after PubChem BioAssay (NCI).

“And” between values parts separate entries of the source, which are not always exact repeats. Equal values may be shown once.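 In this assay, cells in 96-well plates receive the compound at five concentrations for 48 hours. Endpoints are linearly interpolated between the surrounding concentrations. GI50 = concentration required for 50% inhibition of growth. TGI: total growth inhibition.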 Where a SMILES comes first, the peptide text is derived from it. [ ]: non-standard residue; d: D form. The star is where a group is joined. ξ: configuration not given here. ξF = NC(Cc1ccccc1)C(=O)O; Cbz = O=C(OCc1ccccc1)* Where only a bound is given, the exact number is not on record here.

One assay deals with SK-MEL-5 melanoma. The assay can be described thus: NCI anticancer screen, dose series, 48 h.
As to `CSc1nncc(-c2cc3c(c(SC)n2)CCCC3)n1`, the TGI was greater than 100 µM.

For the molecule `O=C1c2ccccc2N2OC3(N4CCOCC4)CCCC3C12c1ccccc1` (stereo not given), the TGI is greater than 100 µM.

The molecule `Cn1c2ccccc2c(=O)c2c(O)cc3c(c21)C1OCC(C)(O)C1O3` (stereo not given) had a TGI greater than 100 µM.

Regarding `COC(=O)[C@@H]1CO[C@H](C(C)(C)C)N1C(=O)N1C=CC(=O)C[C@H]1C`, the TGI was greater than 100 µM.

Molecule `COc1cc(C2c3cc4c(cc3OC(NN)C2C)OCO4)cc(OC)c1O` (stereo not given) gave a TGI of 12.7 µM.

For the molecule `COC(=O)[C@@]12OC[C@]34C([C@@H](O)C1O)[C@@]1(C)CC(=O)C(OC(=O)CC(C)C(F)(F)F)=C(C)C1C[C@H]3OC(=O)[C@H](O)[C@H]42` (stereo not given in full), the TGI is 22.2 µM.

For the molecule `NC1=NC2(COC(c3ccccc3)(c3ccccc3)c3ccccc3)OC(COC(c3ccccc3)(c3ccccc3)c3ccccc3)C(O)C2O1` (stereo not given), the TGI is greater than 100 µM.

In the case of `CCOC(=O)CNC(=O)C(Cc1ccccc1)NC(=O)OCc1ccccc1` (stereo not given) (Cbz-[ξF]-Gly-OEt), the TGI was greater than 100 µM.

For the molecule `CC1(C)O[C@@H]2[C@@H](COC(C)(C)O[C@H]2C2SCCCS2)O1`, the TGI is greater than 100 µM.

`O=C(CCc1cc(O)cc(O)c1)NCCc1cc(O)cc(OCc2ccccc2)c1`: the TGI amounted to 37.1 µM.

`O=C(O)CCCc1ccc2c(c1)CC1(C2)Cc2cc3c(cc2C1)CCCC3` returned a TGI of 32.7 µM.

The molecule `COC(=O)/C=C(\C(=O)OC)c1cc(C)c2cc(C(C)C)ccc(C)c1-2` showed a TGI of 80 µM.

`C=CCON(C(=O)OC(C)(C)C)C(C)(C)C` had a TGI greater than 100 µM.

As for `O=[N+]([O-])c1cccc2nc3ccccc3c(NCCCCCNc3c4ccccc4nc4cccc([N+](=O)[O-])c34)c12`, the GI50 was 0.018 µM; the TGI was 0.255 µM and 0.149 µM.

Molecule `Cc1cc2nc3c(C#N)c(-c4ccccc4)/c(=C\Nc4ccc(F)cc4)c(=O)n3c2cc1C` gave a TGI greater than 100 µM.

`COC(=O)c1c(C)cccc1/C=C1\Cc2ccc(C)c(C)c2C1=O` displayed a TGI greater than 100 µM.

`O=C(c1ccccc1)C1(Br)S(=O)(=O)OCCOS1(=O)=O` had a TGI greater than 100 µM.

For `C1CCC(N=C2N(C3CCCCC3)C(=NC3CCCCC3)N2C2CCCCC2)CC1`, the TGI was greater than 100 µM.

The molecule `O=S(=O)(/N=C(\NO)Nc1ccc(Cl)cc1)c1cc(C(F)(F)F)cc(C(F)(F)F)c1` returned a TGI of 32.8 µM.

Another assay has as its system TK-10 renal. The assay can be described thus: NCI anticancer screen, dose series, 48 h.
In turn, `C1CSCCSCCCS[C@@H]2CCCCC2SC1` (stereo not given in full) registered a TGI greater than 100 µM.

Take `O=[N+]([O-])c1ccc(/C=N/Nc2nc3ccccc3[nH]2)o1`: the TGI was determined as 50 µM.

Molecule `NNc1nnc(CCCCCCCCc2nnc(NN)n2N)n1N` registered a TGI greater than 100 µM.

As to `CCOC(=O)c1c(NC(=O)c2ccccc2)c(C#N)c2n1CCCCC2`, the TGI is greater than 100 µM.

Molecule `O=c1cc(Nc2cccc(O)c2)[nH]c(=O)[nH]1` returned a TGI greater than 100 µM.

The molecule `CCN1/C(=C/C#C/C(C)=C\c2sc3ccc(Cl)cc3[n+]2CC)Sc2ccc(Cl)cc21` had a TGI greater than 100 µM.

For the molecule `CSc1nncc(-c2cc3c(c(SC)n2)CCCC3)n1`, the TGI was greater than 100 µM.

`Cn1c2ccccc2c(=O)c2c(O)cc3c(c21)C1OCC(C)(O)C1O3` (stereo not given) had a TGI greater than 100 µM.

`COC(=O)[C@@H]1CO[C@H](C(C)(C)C)N1C(=O)N1C=CC(=O)C[C@H]1C`: the TGI is greater than 100 µM.

On to `COc1cc(C2c3cc4c(cc3OC(NN)C2C)OCO4)cc(OC)c1O` (stereo not given), for which the TGI was 90.6 µM.

`COC(=O)[C@@]12OC[C@]34C([C@@H](O)C1O)[C@@]1(C)CC(=O)C(OC(=O)CC(C)C(F)(F)F)=C(C)C1C[C@H]3OC(=O)[C@H](O)[C@H]42` (stereo not given in full) came in with a TGI greater than 62.5 µM.

`NC1=NC2(COC(c3ccccc3)(c3ccccc3)c3ccccc3)OC(COC(c3ccccc3)(c3ccccc3)c3ccccc3)C(O)C2O1` (stereo not given): the TGI was greater than 100 µM.

`O=C(CCc1cc(O)cc(O)c1)NCCc1cc(O)cc(OCc2ccccc2)c1` had a TGI greater than 100 µM.

Molecule `O=C(O)CCCc1ccc2c(c1)CC1(C2)Cc2cc3c(cc2C1)CCCC3` showed a TGI greater than 100 µM.

Molecule `COC(=O)/C=C(\C(=O)OC)c1cc(C)c2cc(C(C)C)ccc(C)c1-2` had a TGI greater than 100 µM.

Turning to `C=CCON(C(=O)OC(C)(C)C)C(C)(C)C`, the TGI was greater than 100 µM.

Regarding `O=[N+]([O-])c1cccc2nc3ccccc3c(NCCCCCNc3c4ccccc4nc4cccc([N+](=O)[O-])c34)c12`, the TGI is 0.26 µM and 1.79 µM.

As to `Cc1cc2nc3c(C#N)c(-c4ccccc4)/c(=C\Nc4ccc(F)cc4)c(=O)n3c2cc1C`, the TGI was greater than 100 µM.

As for `COC(=O)c1c(C)cccc1/C=C1\Cc2ccc(C)c(C)c2C1=O`, the TGI is greater than 100 µM.

For `O=C(c1ccccc1)C1(Br)S(=O)(=O)OCCOS1(=O)=O`, the TGI is greater than 100 µM.

For `C1CCC(N=C2N(C3CCCCC3)C(=NC3CCCCC3)N2C2CCCCC2)CC1`, the TGI was greater than 100 µM.

`O=S(=O)(/N=C(\NO)Nc1ccc(Cl)cc1)c1cc(C(F)(F)F)cc(C(F)(F)F)c1` came in with a TGI of 37.6 µM.

A further assay has as its system UACC-257 melanoma. In words: NCI anticancer screen, dose series, 48 h.
As to `C1CSCCSCCCS[C@@H]2CCCCC2SC1` (stereo not given in full), the TGI is greater than 100 µM.

For `O=[N+]([O-])c1ccc(/C=N/Nc2nc3ccccc3[nH]2)o1`, the TGI is greater than 100 µM.

In turn, `NNc1nnc(CCCCCCCCc2nnc(NN)n2N)n1N` came in with a TGI greater than 100 µM.

Regarding `CCOC(=O)c1c(NC(=O)c2ccccc2)c(C#N)c2n1CCCCC2`, the TGI was greater than 100 µM.

`O=c1cc(Nc2cccc(O)c2)[nH]c(=O)[nH]1` had a TGI greater than 100 µM.

Consider `CCN1/C(=C/C#C/C(C)=C\c2sc3ccc(Cl)cc3[n+]2CC)Sc2ccc(Cl)cc21`, for which the TGI came out at 22 µM.

As to `CSc1nncc(-c2cc3c(c(SC)n2)CCCC3)n1`, the TGI is greater than 100 µM.

The molecule `O=C1c2ccccc2N2OC3(N4CCOCC4)CCCC3C12c1ccccc1` (stereo not given) returned a TGI greater than 100 µM.

`Cn1c2ccccc2c(=O)c2c(O)cc3c(c21)C1OCC(C)(O)C1O3` (stereo not given) had a TGI greater than 100 µM.

For the molecule `COC(=O)[C@@H]1CO[C@H](C(C)(C)C)N1C(=O)N1C=CC(=O)C[C@H]1C`, the TGI was greater than 100 µM.

As for `COc1cc(C2c3cc4c(cc3OC(NN)C2C)OCO4)cc(OC)c1O` (stereo not given), the TGI stood at 93 µM.

For the molecule `COC(=O)[C@@]12OC[C@]34C([C@@H](O)C1O)[C@@]1(C)CC(=O)C(OC(=O)CC(C)C(F)(F)F)=C(C)C1C[C@H]3OC(=O)[C@H](O)[C@H]42` (stereo not given in full), the TGI was determined as 35.3 µM.

The molecule `NC1=NC2(COC(c3ccccc3)(c3ccccc3)c3ccccc3)OC(COC(c3ccccc3)(c3ccccc3)c3ccccc3)C(O)C2O1` (stereo not given) yielded a TGI greater than 100 µM.

Molecule `O=C(CCc1cc(O)cc(O)c1)NCCc1cc(O)cc(OCc2ccccc2)c1` had a TGI greater than 100 µM.

Regarding `O=C(O)CCCc1ccc2c(c1)CC1(C2)Cc2cc3c(cc2C1)CCCC3`, the TGI was greater than 100 µM.

Molecule `C=CCON(C(=O)OC(C)(C)C)C(C)(C)C` came in with a TGI greater than 100 µM.

For the molecule `O=[N+]([O-])c1cccc2nc3ccccc3c(NCCCCCNc3c4ccccc4nc4cccc([N+](=O)[O-])c34)c12`, the GI50 is 0.0619 µM; the TGI is 0.393 µM and 1.23 µM.

Take `Cc1cc2nc3c(C#N)c(-c4ccccc4)/c(=C\Nc4ccc(F)cc4)c(=O)n3c2cc1C`: the TGI is greater than 100 µM.

`COC(=O)c1c(C)cccc1/C=C1\Cc2ccc(C)c(C)c2C1=O` showed a TGI greater than 100 µM.

The molecule `O=C(c1ccccc1)C1(Br)S(=O)(=O)OCCOS1(=O)=O` registered a TGI greater than 100 µM.

Consider `C1CCC(N=C2N(C3CCCCC3)C(=NC3CCCCC3)N2C2CCCCC2)CC1`, for which the TGI is greater than 100 µM.

Take `O=S(=O)(/N=C(\NO)Nc1ccc(Cl)cc1)c1cc(C(F)(F)F)cc(C(F)(F)F)c1`: the TGI came out at 42.4 µM.
